According to ChEMBL document CHEMBL2346498, “Expression, characterization and inhibition of Toxoplasma gondii 1-deoxy-D-xylulose-5-phosphate reductoisomerase” (Bioorg Med Chem Lett, 2013):

test: Inhibition of recombinant Toxoplasma gondii DXR catalytic domain (68 to 513) expressed in Escherichia coli BL21 using DXP as substrate after 10 mins by Uv-spectrophotometric analysis; type: cell-free

First: O=P(O)(O)Cc1ccc(-c2ccccc2)cn1
Second: O=c1ccc(-c2ccccc2)cn1O [1-HYDROXY-5-PHENYLPYRIDIN-2(1H)-ONE]
The Ki of the first is 12-fold lower: 2100 nM for the first, 25600 nM for the second.

Compared with O=CN(O)CCC(c1ccc(Cl)c(Cl)c1)P(=O)(O)O (stereo unspecified), CC(=O)N(O)CCC(c1ccc(Cl)c(Cl)c1)P(=O)(O)O (stereo unspecified) is 2.9-fold higher in Ki: 77 nM for the first, 220 nM for the second.

Compared with O=CN(O)CCC(c1cccnc1)P(=O)(O)O (stereo unspecified), CC(=O)N(O)CCC(c1cccnc1)P(=O)(O)O (stereo unspecified) is 18-fold higher in Ki: 55 nM for the first, 970 nM for the second. The first binds more tightly here.

Compared with O=CN(O)CCC(c1ccncc1)P(=O)(O)O (stereo unspecified), CC(=O)N(O)CCC(c1ccncc1)P(=O)(O)O (stereo unspecified) is 6.7-fold higher in Ki: 79 nM for the first, 530 nM for the second. The first binds more tightly here.

Compared with O=CN(O)CCCP(=O)(O)O [FOSMIDOMYCIN], CC(=O)N(O)CCCP(=O)(O)O [FR-900098] is 1.9-fold lower in Ki: 90 nM for the first, 48 nM for the second. The second binds more tightly here.

O=P(O)(O)Cc1ccccn1 [PYRIDIN-2-YLMETHYLPHOSPHONIC ACID] gave a Ki of 4100 nM.
